Experimental data from publication PMC6259751, “Investigating Spectrum of Biological Activity of 4- and 5-Chloro-2-hydroxy-N-[2-(arylamino)-1-alkyl-2-oxoethyl]benzamides” (Molecules, 2011).
≈ marks a conversion by molar mass, not a printed value. Where “and” joins values, the source holds several entries; their conditions need not be identical. Identical values can stand only once. Like-named read-outs stand apart in the source and are kept apart here.

Experiments:
[1] = test system: Mycobacterium kansasii MK CNCTC My 235/80; experiment: In vitro antimycobacterial evaluation; type: cell-based; conditions: IC90 value
[2] = test system: Trichophyton mentagrophytes 445; experiment: In vitro antifungal susceptibility testing (broth microdilution); type: cell-based; conditions: M38-A for moulds, IC50 value, read-out: MIC TM
[3] = test system: Staphylococcus epidermidis H 6966/08; experiment: In vitro antibacterial susceptibility testing (broth microdilution); conditions: read-out: MIC SE
[4] = Lipophilicity determination by RP-HPLC (capacity factor k / log k); type: physicochemical; conditions: C18 column, MeOH 70% / H2O 30%, isocratic
Protocol: Hydrophobicities (log P/Clog P) of compounds 8 and 9 were calculated using two commercially available programs (ChemOffice Ultra 10.0 and ACD/LogP) and measured by means of RP-HPLC determination of capacity factors k with subsequent calculation of log k. The procedure was performed under isocratic conditions with methanol as an organic modifier in the mobile phase using an end-capped non-polar C18 stationary RP column. The results are shown in Table 1 and illustrated in Figure 1.
A Waters Alliance 2695 XE HPLC separation module and a Waters Photodiode Array Detector 2996 (Waters Corp., Milford, MA, USA) were used. A Symmetry® C18 5 μm, 4.6 × 250 mm, Part No. WAT054275 (Waters Corp., Milford, MA, USA) chromatographic column was used. The HPLC separation process was monitored by Empower™ 2 Chromatography Data Software, Waters 2009 (Waters Corp., Milford, MA, USA). A mixture of MeOH p.a. (70%) and H2O-HPLC – Mili-Q Grade (30%) was used as a mobile phase. The total flow of the column was 1.0 mL/min, injection volume, 30 μL, column temperature, 30 °C and sample temperature, 10 °C. The detection wavelength of 210 nm was chosen. The KI methanolic solution was used for the dead time (tD) determination. Retention times (tR) were measured in minutes. The capacity factors k were calculated using the Empower™ 2 Chromatography Data Software according to formula k = (tR - tD)/tD, where tR is the retention time of the solute, whereas tD denotes the dead time obtained using an unretained analyte. Log k, calculated from the capacity factor k, is used as the lipophilicity index converted to log P scale.

[5] = test system: Staphylococcus aureus CCM 4516/08; experiment: In vitro antibacterial susceptibility testing (broth microdilution); conditions: read-out: MIC SA
[6] = test system: Mycobacterium avium MA CNCTC My 330/88; experiment: In vitro antimycobacterial evaluation; type: cell-based; conditions: IC90 value
Candida tropicalis 156 = experiment: In vitro antifungal susceptibility testing (broth microdilution); type: cell-based; conditions: M27-A2 for yeasts, IC80 value
[7] = test system: Mycobacterium tuberculosis MTB CNCTC My 331/88; experiment: In vitro antimycobacterial evaluation; type: cell-based; conditions: IC90 value
[8] = test system: Enterococcus sp. J 14365/08; experiment: In vitro antibacterial susceptibility testing (broth microdilution); conditions: read-out: MIC EF
[9] = test system: photosynthetic electron transport (PET) in spinach chloroplasts; experiment: Inhibition of photosynthetic electron transport (PET) in spinach chloroplasts; type: biochemical, Spinacia oleracea L.; conditions: DCPIP photoreduction
Protocol: Chloroplasts were prepared from spinach (Spinacia oleracea L.) according to Masarovicova and Kralova. The inhibition of photosynthetic electron transport (PET) in spinach chloroplasts was determined spectrophotometrically (Genesys 6, Thermo Scientific, USA), using an artificial electron acceptor 2,6-dichlorophenol-indophenol (DCIPP) according to Kralova et al., and the rate of photosynthetic electron transport was monitored as a photoreduction of DCPIP. The measurements were carried out in phosphate buffer (0.02 mol/L, pH 7.2) containing sucrose (0.4 mol/L), MgCl2 (0.005 mol/L) and NaCl (0.015 mol/L). The chlorophyll content was 30 mg/L in these experiments and the samples were irradiated (~100 W/m^2) from 10 cm distance with a halogen lamp (250 W) using a 4 cm water filter to prevent warming of the samples. The studied compounds were dissolved in DMSO due to their limited water solubility. […] The inhibitory efficiency of the studied compounds was expressed by IC50 values, i.e. by molar concentration of the compounds causing 50% decrease in the oxygen evolution rate relative to the untreated control.

[10] = test system: methicilin resistant Staphylococcus aureus H 5996/08; experiment: In vitro antibacterial susceptibility testing (broth microdilution); conditions: MRSA, read-out: MIC MRSA

O=C(N[C@@H](Cc1ccccc1)C(=O)Nc1cccc(Cl)c1)c1cc(Cl)ccc1O [8f, N-{(1S)-1-benzyl-2-[(3-chlorophenyl)amino]-2-oxoethyl}-5-chloro-2-hydroxybenz-amide]
MIC ([1]; 14h): 62.5 µM (≈ 26.8 µg/mL)
MIC ([1]; 21h): 125 µM (≈ 53.7 µg/mL)
MIC ([2]; 72h): 125 µM (≈ 53.7 µg/mL)
MIC ([2]; 120h): 125 µM (≈ 53.7 µg/mL)
MIC ([3]; H6966/08, 24 h): > 500 µM
MIC ([3]; H6966/08, 48 h): > 500 µM
log k [4]: 0.70 and 0.7098
MIC ([5]; CCM4516, 24 h): > 500 µM
MIC ([5]; CCM4516, 48 h): > 500 µM
MIC ([6]; 14h): 125 µM (≈ 53.7 µg/mL)
MIC ([6]; 21h): 250 µM (≈ 107 µg/mL)
MIC (Candida tropicalis 156; 24h): 31.2 µM (≈ 13.4 µg/mL)
MIC (Candida tropicalis 156; 48h): 125 µM (≈ 53.7 µg/mL)
MIC ([7]; 14h): 62.5 µM (≈ 26.8 µg/mL)
MIC ([7]; 21h): 125 µM (≈ 53.7 µg/mL)
MIC ([8]; SP.J14365/08, 24 h): > 500 µM
MIC ([8]; SP.J14365/08, 48 h): > 500 µM
IC50 [9]: 12.3 µM
MIC ([10]; 24 h): > 500 µM
MIC ([10]; 48 h): > 500 µM

O=C(N[C@@H](Cc1ccccc1)C(=O)Nc1ccc(Cl)cc1)c1cc(Cl)ccc1O [8k]
MIC ([1]; 14h): 32 µM (≈ 13.7 µg/mL)
MIC ([1]; 21h): 62.5 µM (≈ 26.8 µg/mL)
MIC ([2]; 72h): 125 µM (≈ 53.7 µg/mL)
MIC ([2]; 120h): > 125 µM
MIC ([3]; H6966/08, 24 h): > 500 µM
MIC ([3]; H6966/08, 48 h): > 500 µM
log k [4]: 0.7394
MIC ([5]; CCM4516, 24 h): > 500 µM
MIC ([5]; CCM4516, 48 h): > 500 µM
MIC ([6]; 14h): 32 µM (≈ 13.7 µg/mL)
MIC ([6]; 21h): 32 µM (≈ 13.7 µg/mL)
MIC (Candida tropicalis 156; 24h): 125 µM (≈ 53.7 µg/mL)
MIC (Candida tropicalis 156; 48h): > 125 µM
MIC ([7]; 14h): 16 µM (≈ 6.87 µg/mL)
MIC ([7]; 21h): 16 µM (≈ 6.87 µg/mL)
MIC ([8]; SP.J14365/08, 24 h): > 500 µM
MIC ([8]; SP.J14365/08, 48 h): > 500 µM
IC50 [9]: 29.8 µM
MIC ([10]; 24 h): > 500 µM
MIC ([10]; 48 h): > 500 µM

CC(C)[C@H](NC(=O)c1cc(Cl)ccc1O)C(=O)Nc1ccc(Br)cc1 [8s]
MIC ([1]; 14h): 62.5 µM (≈ 26.6 µg/mL)
MIC ([1]; 21h): 125 µM (≈ 53.2 µg/mL)
MIC ([2]; 72h): > 125 µM
MIC ([2]; 120h): > 125 µM
MIC ([3]; H6966/08, 24 h): > 125 µM
MIC ([3]; H6966/08, 48 h): > 125 µM
log k [4]: 0.6709
MIC ([5]; CCM4516, 24 h): > 125 µM
MIC ([5]; CCM4516, 48 h): > 125 µM
MIC ([6]; 14h): 62.5 µM (≈ 26.6 µg/mL)
MIC ([6]; 21h): 62.5 µM (≈ 26.6 µg/mL)
MIC (Candida tropicalis 156; 24h): > 125 µM
MIC (Candida tropicalis 156; 48h): > 125 µM
MIC ([7]; 14h): 62.5 µM (≈ 26.6 µg/mL)
MIC ([7]; 21h): 62.5 µM (≈ 26.6 µg/mL)
MIC ([8]; SP.J14365/08, 24 h): > 125 µM
MIC ([8]; SP.J14365/08, 48 h): > 125 µM
IC50 [9]: 26.2 µM
MIC ([10]; 24 h): > 125 µM
MIC ([10]; 48 h): > 125 µM

O=C(N[C@@H](Cc1ccccc1)C(=O)Nc1ccc(Br)cc1)c1cc(Cl)ccc1O [8u]
MIC ([1]; 14h): 62.5 µM (≈ 29.6 µg/mL)
MIC ([1]; 21h): 125 µM (≈ 59.2 µg/mL)
MIC ([2]; 72h): 500 µM (≈ 237 µg/mL)
MIC ([2]; 120h): > 500 µM
MIC ([3]; H6966/08, 24 h): > 125 µM
MIC ([3]; H6966/08, 48 h): > 125 µM
log k [4]: 0.7779
MIC ([5]; CCM4516, 24 h): > 125 µM
MIC ([5]; CCM4516, 48 h): > 125 µM
MIC ([6]; 14h): 250 µM (≈ 118 µg/mL)
MIC ([6]; 21h): 250 µM (≈ 118 µg/mL)
MIC (Candida tropicalis 156; 24h): 500 µM (≈ 237 µg/mL)
MIC (Candida tropicalis 156; 48h): > 500 µM
MIC ([7]; 14h): 32 µM (≈ 15.2 µg/mL)
MIC ([7]; 21h): 32 µM (≈ 15.2 µg/mL)
MIC ([8]; SP.J14365/08, 24 h): > 125 µM
MIC ([8]; SP.J14365/08, 48 h): > 125 µM
IC50 [9]: 31.2 µM
MIC ([10]; 24 h): > 125 µM
MIC ([10]; 48 h): > 125 µM
